Results on 17 compounds are retold here after patent US7659271B2, “Pyrimidine compound having dibenzylamine structure and medicament comprising the same” (Kowa Company, Ltd., priority 2007, dated 2010).

The target of the assay is T1, CETP (Homo sapiens, UniProt P11597).
T1 construct: The CETP activity in this plasma was measured with Cholesteryl Ester Transfer Protein Activity kit; from tissue; host or cells: human plasma
T1 sequence (P11597 18-493): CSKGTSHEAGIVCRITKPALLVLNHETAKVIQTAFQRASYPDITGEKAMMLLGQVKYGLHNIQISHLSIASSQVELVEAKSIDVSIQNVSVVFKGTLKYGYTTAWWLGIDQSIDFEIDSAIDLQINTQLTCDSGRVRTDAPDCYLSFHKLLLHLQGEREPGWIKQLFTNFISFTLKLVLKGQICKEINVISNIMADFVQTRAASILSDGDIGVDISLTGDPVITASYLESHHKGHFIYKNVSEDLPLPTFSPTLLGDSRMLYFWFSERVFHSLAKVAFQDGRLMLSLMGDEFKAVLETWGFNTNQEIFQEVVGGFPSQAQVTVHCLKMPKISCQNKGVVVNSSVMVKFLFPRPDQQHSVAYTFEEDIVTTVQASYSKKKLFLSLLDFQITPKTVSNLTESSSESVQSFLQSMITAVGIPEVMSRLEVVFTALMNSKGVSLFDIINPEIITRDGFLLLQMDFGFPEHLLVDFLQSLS
Kind of assay: Measurement of CETP inhibitory action in human plasma. Type of assay: biochemical. Conditions: incubated with compound 37° C. 4 hours, Roar Biomedical CETP Activity kit, read-out: IC50 (concentration inhibiting the CETP activity by 50%). As for the experimental part: A solution obtained by dissolving an exemplary compound in polyethylene glycol/N-methyl-2-pyrrolidone (vol/vol=1/1) was added to human plasma, and the mixture was incubated in an incubator at 37° C. for 4 hours. The CETP activity in this plasma was measured with Cholesteryl Ester Transfer Protein Activity kit (Roar Biomedical, catalog No.: RB-CETP). Specifically, to each well of a 96-well plate, 95 μL of a buffer (10 mM Tris, 150 mM NaCl, 2 mM EDTA, pH 7.4), 2 μL of Donor particle and 2 μL of Acceptor particle were added, 1 μL of the human plasma after the incubation was added to the mixture, and the mixture was incubated in an incubator at 37° C. for 2 hours. After completion of the incubation, fluorescence intensity (FLU) was measured with a fluorescence plate reader (excitation wavelength: 465 nm, emission wavelength: 535 nm). In accordance with the following equation 1, the CETP activity (% of control) was obtained for the compounds of the examples for two or more concentrations. CETP activity (% of control)=(Sample FLU−Blank FLU)×100/(Control FLU−Blank FLU) (Equation 1)
In the equation, the terms have the following meanings: […]
Blank FLU: Fluorescence intensity of sample not added with plasma
Control FLU: Fluorescence intensity of plasma not added with solution of compound
Sample FLU: Fluorescence intensity of plasma added with solution of compound
A value obtained by subtracting the value of the CETP activity from 100 was defined as the CETP inhibitory rate of each exemplary compound, and a concentration inhibiting the CETP activity by 50% (IC50) was calculated for each exemplary compound from the values of the CETP inhibitory rate at two or more concentrations.
In the case of `CCN(CC1CCCC1)c1ccc(C(F)(F)F)cc1CN(c1ncc(OCC[S+](C)[O-])cn1)C(C)c1cc(C(F)(F)F)cc(C(F)(F)F)c1` (centres unmarked) [Example 2, N-{1-[3,5-bis(trifluoromethyl)phenyl]ethyl}-N-({2-[(cyclopentylmethyl)(ethyl)amino]-5-(trifluoromethyl)phenyl}methyl)-5-[2-(methylsulfinyl)ethoxy]pyrimidin-2-amine], the IC50 is 40 nM.

As to `CCN(CC1CCCC1)c1ccc(OC)cc1CN(c1ncc(OCCS(C)(=O)=O)cn1)C(C)c1cc(C(F)(F)F)cc(C(F)(F)F)c1` (centres unmarked) [Example 5, N-{1-[3,5-bis(trifluoromethyl)phenyl]ethyl}-N-({2-[(cyclopentylmethyl)(ethyl)amino]-5-methoxyphenyl}methyl)-5-[2-(methylsulfonyl)ethoxy]pyrimidin-2-amine], the IC50 was found to be 50 nM.

With `CCN(CC1CCCC1)c1c(F)cc(F)cc1CN(c1ncc(OCCS(C)(=O)=O)cn1)C(C)c1cc(C(F)(F)F)cc(C(F)(F)F)c1` (centres unmarked) [Example 7, N-{1-[3,5-bis(trifluoromethyl)phenyl]ethyl}-N-({2-[(cyclopentylmethyl)(ethyl)amino]-3,5-difluorophenyl}methyl)-5-[2-(methylsulfonyl)ethoxy]pyrimidin-2-amine], the IC50 stood at 300 nM.

Regarding `CCN(CC1CCCC1)c1ccc(C)cc1CN(c1ncc(OCCS(C)(=O)=O)cn1)C(C)c1cc(C(F)(F)F)cc(C(F)(F)F)c1` (centres unmarked) [Example 9, N-{1-[3,5-bis(trifluoromethyl)phenyl]ethyl}-N-({2-[(cyclopentylmethyl)(ethyl)amino]-5-methylphenyl}methyl)-5-[2-(methylsulfonyl)ethoxy]pyrimidin-2-amine], the IC50 turned out to be 70 nM.

In the case of `CCN(CC1CCCC1)c1cc(F)ccc1CN(c1ncc(OCCS(C)(=O)=O)cn1)C(C)c1cc(C(F)(F)F)cc(C(F)(F)F)c1` (centres unmarked) [Example 11, N-{1-[3,5-bis(trifluoromethyl)phenyl]ethyl}-N-({2-[(cyclopentylmethyl)(ethyl)amino]-4-fluorophenyl}methyl)-5-[2-(methylsulfonyl)ethoxy]pyrimidin-2-amine], the IC50 amounted to 250 nM.

Regarding `CCN(CC1CCCC1)c1cc(OC)ccc1CN(c1ncc(OCCS(C)(=O)=O)cn1)C(C)c1cc(C(F)(F)F)cc(C(F)(F)F)c1` (centres unmarked) [Example 13, N-{1-[3,5-bis(trifluoromethyl)phenyl]ethyl}-N-({2-[(cyclopentylmethyl)(ethyl)amino]-4-methoxyphenyl}methyl)-5-[2-(methylsulfonyl)ethoxy]pyrimidin-2-amine], the IC50 was found to be 100 nM.

For the compound `CCN(CC1CCCC1)c1cc(C(F)(F)F)ccc1CN(c1ncc(OCC[S+](C)[O-])cn1)C(C)c1cc(C(F)(F)F)cc(C(F)(F)F)c1` (centres unmarked) [Example 15, N-{1-[3,5-bis(trifluoromethyl)phenyl]ethyl}-N-({2-[(cyclopentylmethyl)(ethyl)amino]-4-(trifluoromethyl)phenyl}methyl)-5-[2-(methylsulfinyl)ethoxy]pyrimidin-2-amine], the IC50 is 300 nM.

Regarding `CCN(CC1CCCC1)c1cc(C(F)(F)F)ccc1CN(c1ncc(OCCS(C)(=O)=O)cn1)C(C)c1cc(C(F)(F)F)cc(C(F)(F)F)c1` (centres unmarked) [Example 16, N-{1-[3,5-bis(trifluoromethyl)phenyl]ethyl}-N-({2-[(cyclopentylmethyl)(ethyl)amino]-4-(trifluoromethyl)phenyl}methyl)-5-[2-(methylsulfonyl)ethoxy]pyrimidin-2-amine], the IC50 was determined as 150 nM.

In the case of `CCN(CC1CCCC1)c1ccccc1CN(c1ncc(OCCS(C)(=O)=O)cn1)C(C)c1cc(C(F)(F)F)cc(C(F)(F)F)c1` (centres unmarked) [Example 20, N-{1-[3,5-bis(trifluoromethyl)phenyl]ethyl}-N-({2-[(cyclopentylmethyl)(ethyl)amino]phenyl}methyl)-5-[2-(methylsulfonyl)ethoxy]pyrimidin-2-amine], the IC50 amounted to 800 nM.

Regarding `CCN(CC1CCCC1)c1cc(F)c(F)cc1CN(c1ncc(OCCS(C)(=O)=O)cn1)C(C)c1cc(C(F)(F)F)cc(C(F)(F)F)c1` (centres unmarked) [Example 22, N-{1-[3,5-bis(trifluoromethyl)phenyl]ethyl}-N-({2-[(cyclopentylmethyl)(ethyl)amino]-4,5-difluorophenyl}methyl)-5-[2-(methylsulfonyl)ethoxy]pyrimidin-2-amine], the IC50 came to 500 nM.

As for `CCN(CC1CCCC1)c1cc(Cl)ccc1CN(c1ncc(OCCS(C)(=O)=O)cn1)C(C)c1cc(C(F)(F)F)cc(C(F)(F)F)c1` (centres unmarked) [Example 24, N-{1-[3,5-bis(trifluoromethyl)phenyl]ethyl}-N-({4-chloro-2-[(cyclopentylmethyl)(ethyl)amino]phenyl}methyl)-5-[2-(methylsulfonyl)ethoxy]pyrimidin-2-amine], the IC50 stood at 300 nM.

In the case of `CCN(CC1CCCC1)c1ccc(F)cc1CN(c1ncc(OCCS(C)(=O)=O)cn1)C(C)c1cc(C(F)(F)F)cc(C(F)(F)F)c1` (centres unmarked) [Example 26, N-{1-[3,5-bis(trifluoromethyl)phenyl]ethyl}-N-({2-[(cyclopentylmethyl)(ethyl)amino]-5-fluorophenyl}methyl)-5-[2-(methylsulfonyl)ethoxy]pyrimidin-2-amine], the IC50 amounted to 250 nM.

With `CCN(CC1CCCC1)c1cc(Br)ccc1CN(c1ncc(OCCS(C)(=O)=O)cn1)C(C)c1cc(C(F)(F)F)cc(C(F)(F)F)c1` (centres unmarked) [Example 28, N-{1-[3,5-bis(trifluoromethyl)phenyl]ethyl}-N-({4-bromo-2-[(cyclopentylmethyl)(ethyl)amino]phenyl}methyl)-5-[2-(methylsulfonyl)ethoxy]pyrimidin-2-amine], the IC50 came to 200 nM.

`CCN(CC1CCCC1)c1ccc(Br)cc1CN(c1ncc(OCCS(C)(=O)=O)cn1)C(C)c1cc(C(F)(F)F)cc(C(F)(F)F)c1` (centres unmarked) [Example 30, N-{1-[3,5-bis(trifluoromethyl)phenyl]ethyl}-N-({5-bromo-2-[(cyclopentylmethyl)(ethyl)amino]phenyl}methyl)-5-[2-(methylsulfonyl)ethoxy]pyrimidin-2-amine]: the IC50 stood at 45 nM.

Take `CCN(CC1CCCC1)c1ccc(C(F)(F)F)cc1CN(c1ncc(OCCS(C)(=O)=O)cn1)C(C)c1cc(C#N)cc(C(F)(F)F)c1` (centres unmarked) [Example 32, 3-{1-[({2-[(cyclopentylmethyl)(ethyl)amino]-5-trifluoromethylphenyl}methyl){5-[2-(methylsulfonyl)ethoxy]pyrimidin-2-yl}amino]ethyl}-5-(trifluoromethyl)benzonitrile]: the IC50 was found to be 30 nM.

Consider `CCN(C[C@H]1CC[C@H](CC(=O)O)CC1)c1ccc(C(F)(F)F)cc1CN(c1ncc(OCCS(C)(=O)=O)cn1)C(C)c1cc(C(F)(F)F)cc(C(F)(F)F)c1` (stereo partly drawn) [Example 45, trans-{4-[({2-[({1-[3,5-bis(trifluoromethyl)phenyl]ethyl}{5-[2-(methylsulfonyl)ethoxy]pyrimidin-2-yl}amino)methyl]-4-(trifluoromethyl)phenyl}(ethyl)amino)methyl]cyclohexyl}acetic acid], for which the IC50 came out at 120 nM.

Take `CC(c1cc(C(F)(F)F)cc(C(F)(F)F)c1)N(Cc1cc(F)cc(F)c1N(CC1CC1)CC1CC1)c1ncc(OCCS(C)(=O)=O)cn1` (centres unmarked) [Example 47, N-({2-[bis(cyclopropylmethyl)amino]-3,5-difluorophenyl}methyl)-N-{1-[3,5-bis(trifluoromethyl)phenyl]ethyl}-5-[2-(methylsulfonyl)ethoxy]pyrimidin-2-amine]: the IC50 was 400 nM.
